Type in all cases: cell-based
One series deals with T1, 5-HT2C receptor (Homo sapiens, UniProt P28335).
T1 construct: expressed in transfected cells; host or cells: HEK293T
T1 sequence (P28335 33-458): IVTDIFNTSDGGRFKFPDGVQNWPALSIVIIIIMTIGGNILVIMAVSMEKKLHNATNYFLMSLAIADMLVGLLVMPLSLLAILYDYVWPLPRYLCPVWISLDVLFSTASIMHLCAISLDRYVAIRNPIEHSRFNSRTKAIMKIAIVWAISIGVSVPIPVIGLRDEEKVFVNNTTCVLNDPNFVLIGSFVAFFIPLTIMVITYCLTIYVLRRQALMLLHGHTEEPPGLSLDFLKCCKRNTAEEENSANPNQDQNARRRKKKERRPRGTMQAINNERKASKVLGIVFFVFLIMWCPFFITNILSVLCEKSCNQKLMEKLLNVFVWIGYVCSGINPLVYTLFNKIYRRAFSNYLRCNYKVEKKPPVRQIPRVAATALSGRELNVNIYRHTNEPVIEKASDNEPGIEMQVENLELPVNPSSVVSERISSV
Put plainly: cell-based. The settings on record: Table 2; for EC50: at least three replicate trials, read-out: 5-HT2C BRET EC50; for 5-HT2C BRET Eff %: normalized to % 5-HT stimulation.

In a further series the target is T2, 5-HT2A receptor (Homo sapiens, UniProt P28223).
T2 construct: expressed in transfected cells; host or cells: HEK293T
As to the kind of experiment: 5-HT2A Gq dissociation BRET functional assay. The conditions noted are these: for 5-HT2A BRET Eff %: normalized to % 5-HT stimulation.

In another series the target is T3, 5-HT2B receptor (Homo sapiens, UniProt P41595).
T3 construct: expressed in transfected cells; host or cells: HEK293T
Put plainly: 5-HT2B Gq dissociation BRET functional assay. The conditions noted are these: Table 2; for EC50: at least three replicate trials; for 5-HT2B BRET Eff %: normalized to % 5-HT stimulation.

Series [1] has as its target T4, human ether-a-go-go-related gene (hERG) K+ channel (Homo sapiens, UniProt Q12809).
T4 construct: Eurofins
Put plainly: Eurofins hERG Qube APC Assay. The source says:
As used herein and unless otherwise specified, the term “hERG risk” refers to the risk of a compound potentially inhibiting the human ether-a-go-go-related gene (hERG) K^+ channel, thereby leading to QT prolongation.
As a result of, many compounds disclosed in Table 1 and Table 2 were screened for the potential of “hERG risk” using pharmacological assays (e.g. Eurofins™ hERG Qube APC Assay). […].

Where [2] appears, read: Table 2, at least three replicate trials, read-out: 5-HT2A BRET EC50.
Where [3] appears, read: 5-HT2A BRET EC50 (nM), Table 2, at least three replicate trials.

The values that follow come from patent US20250074871A1, “PHENETHYLAMINES AND METHODS OF PREPARATION THEREOF” (priority 2022, published 2025).

Like-named read-outs stand apart in the source and are kept apart here.

T3 sequence (P41595 whole entry): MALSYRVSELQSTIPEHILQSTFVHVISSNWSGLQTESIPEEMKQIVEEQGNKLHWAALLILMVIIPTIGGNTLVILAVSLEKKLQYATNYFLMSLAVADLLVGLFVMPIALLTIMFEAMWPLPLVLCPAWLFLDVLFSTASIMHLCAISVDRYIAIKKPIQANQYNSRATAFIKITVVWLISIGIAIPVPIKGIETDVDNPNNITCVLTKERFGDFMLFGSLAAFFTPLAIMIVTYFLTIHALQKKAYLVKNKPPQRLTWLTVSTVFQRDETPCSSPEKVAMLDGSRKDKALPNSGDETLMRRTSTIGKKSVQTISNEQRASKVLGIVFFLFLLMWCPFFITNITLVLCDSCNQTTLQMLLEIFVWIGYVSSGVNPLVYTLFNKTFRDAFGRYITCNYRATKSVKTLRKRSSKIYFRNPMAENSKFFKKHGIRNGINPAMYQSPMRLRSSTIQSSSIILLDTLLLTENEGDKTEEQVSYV
T2 sequence (P28223 whole entry): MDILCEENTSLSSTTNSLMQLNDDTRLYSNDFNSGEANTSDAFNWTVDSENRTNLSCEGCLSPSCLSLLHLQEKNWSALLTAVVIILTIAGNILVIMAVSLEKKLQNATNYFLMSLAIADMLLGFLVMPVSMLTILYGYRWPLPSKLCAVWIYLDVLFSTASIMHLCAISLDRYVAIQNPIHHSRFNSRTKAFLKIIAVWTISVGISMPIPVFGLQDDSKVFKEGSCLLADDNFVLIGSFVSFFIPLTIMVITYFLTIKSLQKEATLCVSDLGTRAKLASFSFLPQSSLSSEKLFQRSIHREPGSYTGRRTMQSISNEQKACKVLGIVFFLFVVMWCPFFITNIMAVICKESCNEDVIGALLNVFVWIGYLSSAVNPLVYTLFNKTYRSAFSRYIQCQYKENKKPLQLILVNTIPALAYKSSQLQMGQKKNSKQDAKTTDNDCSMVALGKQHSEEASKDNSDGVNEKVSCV
T4 sequence (Q12809 whole entry): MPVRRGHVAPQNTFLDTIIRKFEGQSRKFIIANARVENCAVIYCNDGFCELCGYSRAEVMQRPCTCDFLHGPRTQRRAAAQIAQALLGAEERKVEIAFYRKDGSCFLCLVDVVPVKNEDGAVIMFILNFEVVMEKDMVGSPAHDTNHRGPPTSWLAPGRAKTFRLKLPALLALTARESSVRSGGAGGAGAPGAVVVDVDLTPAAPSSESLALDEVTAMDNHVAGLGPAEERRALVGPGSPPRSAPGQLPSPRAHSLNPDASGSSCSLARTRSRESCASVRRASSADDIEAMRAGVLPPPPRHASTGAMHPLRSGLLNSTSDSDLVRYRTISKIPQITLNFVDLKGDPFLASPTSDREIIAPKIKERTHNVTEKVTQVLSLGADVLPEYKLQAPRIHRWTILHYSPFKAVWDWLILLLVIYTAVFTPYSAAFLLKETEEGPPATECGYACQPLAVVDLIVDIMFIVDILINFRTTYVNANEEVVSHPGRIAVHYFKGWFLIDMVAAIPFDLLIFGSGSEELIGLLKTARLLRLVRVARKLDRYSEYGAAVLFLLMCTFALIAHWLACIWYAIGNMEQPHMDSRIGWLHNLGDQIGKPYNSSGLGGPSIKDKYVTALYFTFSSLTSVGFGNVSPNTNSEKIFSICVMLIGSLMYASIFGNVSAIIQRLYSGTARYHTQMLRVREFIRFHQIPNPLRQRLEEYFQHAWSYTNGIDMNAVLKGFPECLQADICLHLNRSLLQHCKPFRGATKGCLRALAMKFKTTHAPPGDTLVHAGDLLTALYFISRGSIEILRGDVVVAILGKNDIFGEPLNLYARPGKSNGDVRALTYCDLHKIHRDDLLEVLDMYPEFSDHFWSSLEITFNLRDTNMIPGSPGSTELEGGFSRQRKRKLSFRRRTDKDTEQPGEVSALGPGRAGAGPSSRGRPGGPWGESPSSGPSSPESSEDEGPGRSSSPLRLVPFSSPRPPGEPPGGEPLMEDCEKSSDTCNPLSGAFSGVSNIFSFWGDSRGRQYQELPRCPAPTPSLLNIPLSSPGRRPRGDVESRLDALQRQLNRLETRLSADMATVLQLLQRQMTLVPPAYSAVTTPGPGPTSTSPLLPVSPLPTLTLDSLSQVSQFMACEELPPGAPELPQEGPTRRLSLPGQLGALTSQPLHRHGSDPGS

`COc1cc(C#N)ccc1CCNCC1CC1` [Cpd #133]: the figures for the EC50 at 5-HT2C receptor, on 5-HT2A receptor (setting [2]) and at 5-HT2B receptor (read-out: 5-HT2B BRET EC50) were 34400 nM, 10700 nM and 0.07 nM, respectively. For the same compound, the “5-HT2C BRET Eff %” value at 5-HT2C receptor is given as 71%. Further, on 5-HT2A receptor (Table 2), the “5-HT2A BRET Eff %” value came out at 64%. On 5-HT2B receptor, the “5-HT2B BRET Eff %” value is reported as −6%.

`CSc1ccccc1CCNCCc1ccc(C#N)cc1O` [Cpd #134]: the EC50 at 5-HT2C receptor amounted to 160 nM; at 5-HT2A receptor (setting [2]), 384 nM; on 5-HT2B receptor (read-out: 5-HT2B BRET EC50), 620 nM. Besides, the “5-HT2C BRET Eff %” value at 5-HT2C receptor turned out to be 87%. Moreover, the “5-HT2A BRET Eff %” value at 5-HT2A receptor (Table 2) was 67%. At 5-HT2B receptor, the “5-HT2B BRET Eff %” value is on record as 85%.

As for `CSc1ccccc1CCCNCCc1ccc(C#N)cc1O` [Cpd #135], the EC50 was 121 nM on 5-HT2C receptor, 423 nM on 5-HT2A receptor (setting [2]) and 502 nM at 5-HT2B receptor (read-out: 5-HT2B BRET EC50). The “5-HT2C BRET Eff %” value at 5-HT2C receptor was 65%. Further, the “5-HT2A BRET Eff %” value on 5-HT2A receptor (Table 2) is recorded as 51%. Besides, the “5-HT2B BRET Eff %” value at 5-HT2B receptor amounted to 15%.

On to `CSc1ccccc1CNCCCc1ccc(C#N)cc1O` [Cpd #136], for which the results for the EC50 at 5-HT2C receptor, at 5-HT2A receptor (setting [2]) and at 5-HT2B receptor (read-out: 5-HT2B BRET EC50) were 412 nM, 1380 nM and 7330 nM, respectively. The “5-HT2C BRET Eff %” value on 5-HT2C receptor was 43%. Further, the “5-HT2A BRET Eff %” value on 5-HT2A receptor (Table 2) was 55%. The “5-HT2B BRET Eff %” value at 5-HT2B receptor came out at 49%.

In the case of `N#Cc1ccc(CCNCc2ccccc2O)c(C(F)(F)F)c1` [Cpd #137], the EC50 at 5-HT2C receptor was 56.5 nM; at 5-HT2A receptor (setting [3]), 312 nM. Moreover, at 5-HT2C receptor, the “5-HT2C BRET Eff %” value worked out at 83%. In addition, on 5-HT2A receptor (Table 2), the “5-HT2A BRET Eff %” value stood at 89%. In addition, the “5-HT2B BRET EC50 (nM) / Eff %” value at 5-HT2B receptor was “Inactive”.

Turning to `COc1cc(C#N)ccc1CCNCc1cccs1` [Cpd #138], the concentration for a half-maximal effect (EC50) at 5-HT2C receptor amounted to 198 nM; on 5-HT2A receptor (setting [2]) it was 187 nM; at 5-HT2B receptor (read-out: 5-HT2B BRET EC50), 0.03 nM. On 5-HT2C receptor, the “5-HT2C BRET Eff %” value was found to be 102%. The “5-HT2A BRET Eff %” value at 5-HT2A receptor (Table 2) is recorded as 75%. For the same compound, the “5-HT2B BRET Eff %” value on 5-HT2B receptor was −2%.

For `N#Cc1ccc(CCNCc2ccsc2Cl)c(O)c1` [Cpd #139], at 5-HT2C receptor, the EC50 was found to be 4670 nM and the “5-HT2C BRET Eff %” value is given as 91%. Also, on 5-HT2A receptor (setting [2]), the EC50 came to 1260 nM. In addition, the “5-HT2A BRET Eff %” value at 5-HT2A receptor (Table 2) is 80%. The “5-HT2B BRET EC50 (nM) / Eff %” value on 5-HT2B receptor was “Inactive”.

For the compound `COc1cc(Oc2ccccc2)ccc1CCN` [Cpd #140], the values for the EC50 at 5-HT2C receptor and on 5-HT2A receptor (setting [3]) were 796 nM and 2890 nM, respectively. Moreover, at 5-HT2C receptor, the “5-HT2C BRET Eff %” value is reported as 107%. Also, the “5-HT2A BRET Eff %” value at 5-HT2A receptor (Table 2) turned out to be 87%. For the same compound, the “5-HT2B BRET EC50 (nM) / Eff %” value at 5-HT2B receptor is “Inactive”.

`COc1cc2c(cc1CCNCc1ccccc1O)CCO2` [Cpd #141]: the EC50 at 5-HT2C receptor is 1.6 nM; at 5-HT2A receptor (setting [3]), 2.3 nM; at 5-HT2B receptor (5-HT2B BRET EC50 (nM)) it was 78.5 nM. Also, the “5-HT2C BRET Eff %” value on 5-HT2C receptor was determined as 107%. Also, the “5-HT2A BRET Eff %” value at 5-HT2A receptor (Table 2) is 96%. At 5-HT2B receptor, the “5-HT2B BRET Eff %” value is given as 59%.

`CSc1ccccc1CNC[C@@H]1CCc2cc(C#N)cc(O)c21` [Cpd #142]: the EC50 at 5-HT2C receptor was found to be 17600 nM; at 5-HT2A receptor (setting [2]), 1960 nM; on 5-HT2B receptor (read-out: 5-HT2B BRET EC50) it was 18.5 nM. In addition, the “5-HT2C BRET Eff %” value at 5-HT2C receptor was determined as 108%. Moreover, the “5-HT2A BRET Eff %” value at 5-HT2A receptor (Table 2) is recorded as 68%. The “5-HT2B BRET Eff %” value at 5-HT2B receptor is listed as −20%.

For the compound `Oc1ccccc1CNCC(O)c1ccc(C(F)(F)F)cc1OCc1ccccc1` (stereo not shown) [Reference Compound 1a, reference compound], the EC50 on 5-HT2C receptor is 326 nM; on 5-HT2A receptor (setting [2]), 451 nM; on 5-HT2A receptor (Table 4, unit inferred, read-out: EC50 BRET 2A), 451 nM; on 5-HT2B receptor (read-out: 5-HT2B BRET EC50), 342 nM. Moreover, the “5-HT2C BRET Eff %” value on 5-HT2C receptor stood at 105%. Further, inhibition in series [1] was half-maximal at 2300 nM (IC50). Besides, in series [1] (Table 4), the “IC50 (hERG)/EC50 (5-HT2A) ratio” value turned out to be 5. In addition, the hERG risk potential result in series [1] (based on IC50 (hERG)/EC50 (5-HT2A) ratio) was “High (compounds exhibiting a IC50 (hERG) /EC50 (5-HT2A) ratio of less than or equal to 150 are generally indicative of high hERG risk potential)”. Moreover, at 5-HT2A receptor (Table 2), the “5-HT2A BRET Eff %” value was found to be 91%. Moreover, the “5-HT2B BRET Eff %” value at 5-HT2B receptor turned out to be 56%.
